Experimental findings from patent US12630521B2, “Arylamides and methods of use thereof” (Genzyme Corporation, priority 2019, dated 2026) are described below.

Molecules are shown by their SMILES. pEC50: −log10 of the molar value.

The target in test [1] is T1, human Cystic Fibrosis Transmembrane Conductance Regulator (CFTR) harboring the ΔF508 mutation (Homo sapiens, UniProt P13569, DEL508-508).
T1 construct: expressed in transfected cells; host or cells: H441 carcinoma cell line (G418 selection)
Kind of test: H441 cell Emax and EC50: HRP-tagged ΔF508-CFTR cell-surface luminescence assay. The following applies: H441 cells expressing HRP-tagged ΔF508-CFTR, 27° C. for two nights; for pEC50: 15-point dose-response; for Emax: NCI-H441, % of maximum VX809 signal. The class given is cell-based. The essentials: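 H441 cells expressing ΔF508-CFTR with HRP fused in extracellular loop 4 (CMV promoter), ~10K cells/well, 15-point dose range 24.5 to 0.001 μM, incubated at 27° C. for two nights. Surface CFTR read by Luminata Forte luminescence; Emax as % of maximum VX809 signal, plus EC50.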

Test [2] concerns the target T2, CFTR (ΔF508 homozygous CF-HBE cells) (Homo sapiens, UniProt P13569, DEL508-508).
T2 construct: Primary human bronchial epithelial cells from a ΔF508 homozygous CF donor; host or cells: primary CF-HBE cells (ΔF508/ΔF508 donor)
Put plainly: TECC24 AUC fold over DMSO @10 uM: CFTR-mediated transepithelial chloride transport in primary CF-HBE cells. The class given is cell-based. Conditions: 10 μM test agent, 48 hours, forskolin-stimulated IEQ AUC divided by vehicle AUC. Put shortly: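 Primary ΔF508-homozygous CF bronchial epithelial cells were exposed to test agent for 48 h at 36.5° C, then VT and TEER were recorded with benzamil (10 μM), forskolin (10 μM) stimulation and CFTR inhibitor-172 (20 μM) at the end. AUC of equivalent Cl- current between forskolin and inhibitor is expressed as fold over DMSO vehicle.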

T1 sequence (P13569 with tags, fused parts or gaps DEL508-508): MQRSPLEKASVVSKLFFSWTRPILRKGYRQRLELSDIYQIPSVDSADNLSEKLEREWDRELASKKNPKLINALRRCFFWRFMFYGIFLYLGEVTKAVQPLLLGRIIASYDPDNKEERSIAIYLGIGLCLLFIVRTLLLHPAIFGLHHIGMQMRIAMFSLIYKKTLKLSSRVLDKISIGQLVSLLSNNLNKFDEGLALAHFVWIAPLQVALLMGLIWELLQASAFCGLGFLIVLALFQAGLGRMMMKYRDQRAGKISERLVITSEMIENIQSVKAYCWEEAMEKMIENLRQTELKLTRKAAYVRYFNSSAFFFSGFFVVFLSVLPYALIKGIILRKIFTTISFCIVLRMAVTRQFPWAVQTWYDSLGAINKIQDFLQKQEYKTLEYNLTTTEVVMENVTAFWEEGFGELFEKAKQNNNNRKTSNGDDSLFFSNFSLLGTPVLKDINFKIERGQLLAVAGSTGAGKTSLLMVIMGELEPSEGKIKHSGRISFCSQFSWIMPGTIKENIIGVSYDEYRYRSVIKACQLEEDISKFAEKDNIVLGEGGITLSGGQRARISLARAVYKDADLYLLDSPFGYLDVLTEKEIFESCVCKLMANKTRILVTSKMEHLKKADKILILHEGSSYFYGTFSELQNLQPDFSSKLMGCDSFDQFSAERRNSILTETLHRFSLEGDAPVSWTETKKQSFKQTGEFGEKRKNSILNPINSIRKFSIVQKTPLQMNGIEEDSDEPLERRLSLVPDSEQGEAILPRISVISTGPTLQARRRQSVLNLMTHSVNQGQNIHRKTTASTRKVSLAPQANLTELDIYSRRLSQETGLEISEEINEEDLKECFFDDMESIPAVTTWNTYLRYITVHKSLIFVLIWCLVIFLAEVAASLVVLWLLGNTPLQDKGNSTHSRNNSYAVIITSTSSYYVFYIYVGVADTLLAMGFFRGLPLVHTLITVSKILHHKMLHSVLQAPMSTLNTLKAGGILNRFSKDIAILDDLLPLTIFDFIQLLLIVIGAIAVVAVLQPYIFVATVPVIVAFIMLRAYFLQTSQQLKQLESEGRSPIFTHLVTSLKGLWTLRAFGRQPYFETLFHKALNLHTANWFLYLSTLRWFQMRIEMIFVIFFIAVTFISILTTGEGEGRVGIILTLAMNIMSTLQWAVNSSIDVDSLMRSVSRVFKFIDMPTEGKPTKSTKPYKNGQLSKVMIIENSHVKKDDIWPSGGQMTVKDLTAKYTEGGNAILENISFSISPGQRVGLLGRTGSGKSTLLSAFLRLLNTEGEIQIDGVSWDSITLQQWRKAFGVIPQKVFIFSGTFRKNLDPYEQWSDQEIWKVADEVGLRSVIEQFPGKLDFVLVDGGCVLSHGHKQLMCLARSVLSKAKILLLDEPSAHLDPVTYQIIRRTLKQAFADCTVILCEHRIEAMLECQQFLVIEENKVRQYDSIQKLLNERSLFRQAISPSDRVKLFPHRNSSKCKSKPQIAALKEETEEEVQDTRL
T2 sequence (P13569 with tags, fused parts or gaps DEL508-508): as above

In the case of `Cc1c(Cl)sc2ccc(C(=O)N[C@H](C(=O)O)C(C)(C)C)c(OCc3ccc(C(F)(F)F)cc3)c12` [Compound 35-1, (2S)-2-[[2-chloro-3-methyl-4-[[4-(trifluoromethyl)phenyl]methoxy]-benzothiophene-5-carbonyl]amino]-3,3-dimethyl-butanoic acid], in test [1], the pEC50 (in general, −log10 of the EC50, conventionally taken in molar units) is 6.21 and the Emax (commonly the size of the effect at its maximum, as opposed to the concentration needed) is 151%. Moreover, the “TECC24 AUC fold over DMSO” value in test [2] is “A (“A” refers to AUC @10 μM > 6)”.

Regarding `Cc1csc2ccc(C(=O)N[C@H](C(=O)O)C(C)(C)C)c(OCc3ccc(C(F)(F)F)cc3)c12` [Compound 35-2, (2S)-3,3-dimethyl-2-[[3-methyl-4-[[4-(trifluoromethyl)phenyl]methoxy]-benzothiophene-5-carbonyl]amino]butanoic acid], in test [1], the pEC50 is 6.33 and the Emax stood at 146%. Further, the “TECC24 AUC fold over DMSO” value in test [2] is “C (“C” refers to AUC @10 μM < 4)”.

In test [1], `Cc1nc2c(OCc3ccc(C(F)(F)F)cc3)c(C(=O)N[C@H](C(=O)O)C(C)(C)C)ccc2s1` [Compound 35-3, (2S)-3,3-dimethyl-2-[[2-methyl-4-[[4-(trifluoromethyl)phenyl]methoxy]-1,3-benzothiazole-5-carbonyl]amino]butanoic acid] had a pEC50 of 6.18 and an Emax of 286%. The “TECC24 AUC fold over DMSO” value in test [2] is given as “A (“A” refers to AUC @10 μM > 6)”.
